Data: ChEMBL document CHEMBL4359869, “A new GSH-responsive prodrug of 5-aminolevulinic acid for photodiagnosis and photodynamic therapy of tumors” (Eur J Med Chem, 2019)
Activity calls are given as the source filed them. The calls are words filed in the database; no cut-off is given here.

Tests used:
A-375 [1] = test: Cytotoxicity against human A375 cells assessed as reduction in cell viability incubated for 4 hrs followed by LED light array irradiation followed by further incubation for 24 hrs by MTT assay; format: functional, cell-based
[2] = Prodrug activation in human HeLa cells assessed as GSH-mediated PpIX production at 10 to 1000 uM incubated for 4 hrs by fluorescence based assay; format: cell-based
A549 [3] = test: Cytotoxicity against human A549 cells assessed as reduction in cell viability incubated for 4 hrs followed by LED light array irradiation followed by further incubation for 24 hrs by MTT assay; format: functional, cell-based
HCT-116 [4] = test: Cytotoxicity against human HCT116 cells assessed as reduction in cell viability incubated for 4 hrs followed by LED light array irradiation followed by further incubation for 24 hrs by MTT assay; format: functional, cell-based
HeLa [5] = test: Cytotoxicity against human HeLa cells assessed as cell viability at 10 to 1000 uM incubated for 4 hrs measured under dark conditions by MTT assay; format: cell-based
HeLa [6] = test: Cytotoxicity against human HeLa cells assessed as cell viability at 10 to 1000 uM incubated for 4 hrs followed by LED light array irradiation followed by further incubation for 24 hrs by MTT assay; format: functional, cell-based
[7] = Prodrug activation in human HeLa cells assessed as increase in GSH-mediated PpIX production at 100 uM incubated for 4 hrs by fluorescence imaging analysis; format: cell-based
HeLa [8] = test: Photosensitization activity against human HeLa cells assessed as reduction in cell viability incubated for 4 hrs followed by LED light array irradiation followed by further incubation for 24 hrs by MTT assay; format: functional, cell-based; conditions: light or radiation study
[9] = Prodrug activation in human A375 cells assessed as increase in GSH-mediated PpIX production at 100 to 300 uM incubated for 4 hrs by fluorescence based assay; format: cell-based; conditions: a-375, 4 h
[10] = Prodrug activation in human HeLa cells assessed as increase in GSH-mediated PpIX production at 1000 uM incubated for 4 hrs by fluorescence based assay; format: cell-based
[11] = n-octanol/water partition coefficient, log P of the compound at 1M incubated for 0.5 hrs by HPLC analysis; format: physicochemical
[12] = Chemical stability of the compound in buffer at 1M at pH 4 by HPLC analysis; format: physicochemical
[13] = Prodrug activation in human HeLa cells assessed as increase in GSH-mediated PpIX production at 10 to 300 uM incubated for 4 hrs by fluorescence based assay; format: cell-based
HeLa [14] = test: Photosensitization activity against human HeLa cells assessed as cell viability at 100 uM incubated for 4 hrs followed by LED light array irradiation followed by further incubation for 24 hrs by MTT assay; format: functional
[15] = Prodrug activation in human A549 cells assessed as increase in GSH-mediated PpIX production at 100 to 300 uM incubated for 4 hrs by fluorescence based assay; format: cell-based; conditions: a549, 4 h
[16] = Chemical stability of the compound in buffer at 1M at pH 9 by HPLC analysis; format: physicochemical
HCT-116 [17] = test: Photosensitization activity against human HCT116 cells assessed as cell viability at 100 uM incubated for 4 hrs followed by LED light array irradiation followed by further incubation for 24 hrs by MTT assay; format: functional; conditions: HCT-116, light or radiation study, read-out: Activity
[18] = Chemical stability of the compound in buffer at 1M at pH 7.4 by HPLC analysis; format: physicochemical
A-375 [19] = test: Photosensitization activity against human A375 cells assessed as cell viability at 100 uM incubated for 4 hrs followed by LED light array irradiation followed by further incubation for 24 hrs by MTT assay; format: functional; conditions: A-375, light or radiation study, read-out: Activity
[20] = Prodrug activation in human HCT116 cells assessed as increase in GSH-mediated PpIX production at 100 to 300 uM incubated for 4 hrs by fluorescence based assay; format: cell-based; conditions: hct-116, 4 h
A549 [21] = test: Photosensitization activity against human A549 cells assessed as cell viability at 100 uM incubated for 4 hrs followed by LED light array irradiation followed by further incubation for 24 hrs by MTT assay; format: functional; conditions: A549, light or radiation study, read-out: Activity
[22] = Prodrug activation in human HeLa cells assessed as increase in GSH-mediated PpIX production at 300 uM incubated for 4 hrs by fluorescence based assay; format: cell-based
HeLa [23] = test: Potency index, ratio of 5-ALA-OMe IC50 to compound IC50 for photosensitization activity against human HeLa cells by MTT assay; format: functional
[24] = Prodrug activation in human HeLa cells assessed as increase in GSH-mediated PpIX production at 100 uM incubated for 4 hrs by fluorescence based assay relative to 5-ALA; format: cell-based
[25] = Prodrug activation in human HeLa cells assessed as increase in GSH-mediated PpIX production at 100 uM incubated for 4 hrs pretreated for 1 hr with 1 mM intracellular GSH depletor, DEM by fluorescence imaging analysis; format: cell-based
[26] = Prodrug activation in human A549 cells assessed as increase in GSH-mediated PpIX production at 100 uM incubated for 4 hrs by fluorescence based assay relative to 5-ALA-OMe; format: cell-based; conditions: a549, 4 h
[27] = Prodrug activation in human A375 cells assessed as increase in GSH-mediated PpIX production at 100 uM incubated for 4 hrs by fluorescence based assay relative to 5-ALA-OMe; format: cell-based; conditions: a-375, 4 h
[28] = Chemical stability of the compound in buffer at 1 M at pH 4 to 9 measured after 24 hrs by HPLC analysis; format: physicochemical; conditions: pH 4, 24 h
HeLa [29] = test: Cytotoxicity against human HeLa cells assessed as reduction in cell viability at 300 to 1000 uM incubated for 4 hrs measured under dark conditions by MTT assay; format: cell-based
[30] = Prodrug activation in human HCT116 cells assessed as increase in GSH-mediated PpIX production at 500 to 1000 uM incubated for 4 hrs by fluorescence based assay; format: cell-based; conditions: hct-116, 4 h
HeLa [31] = test: Cytotoxicity against human HeLa cells assessed as reduction in cell viability at 10 to 300 uM incubated for 4 hrs measured under dark conditions by MTT assay; format: cell-based
[32] = Prodrug activation in human A375 cells assessed as increase in GSH-mediated PpIX production at 100 uM incubated for 4 hrs by fluorescence based assay relative to 5-ALA; format: cell-based; conditions: a-375, 4 h
[33] = Prodrug activation in human HCT116 cells assessed as increase in GSH-mediated PpIX production at 100 uM incubated for 4 hrs by fluorescence based assay relative to 5-ALA; format: cell-based; conditions: hct-116, 4 h
HCT-116 [34] = test: Cytotoxicity against human HCT116 cells assessed as reduction in cell viability at 500 to 1000 uM incubated for 4 hrs measured under dark conditions by MTT assay; format: cell-based; conditions: hct-116, 4 h
[35] = Prodrug activation in human A549 cells assessed as increase in GSH-mediated PpIX production at 500 to 1000 uM incubated for 4 hrs by fluorescence based assay; format: cell-based; conditions: a549, 4 h
[36] = Prodrug activation in human HeLa cells assessed as increase in GSH-mediated PpIX production at 300 to 1000 uM incubated for 4 hrs by fluorescence based assay; format: cell-based
A549 [37] = test: Cytotoxicity against human A549 cells assessed as reduction in cell viability at 500 to 1000 uM incubated for 4 hrs measured under dark conditions by MTT assay; format: cell-based; conditions: a549, 4 h
[38] = Prodrug activation in human A375 cells assessed as increase in GSH-mediated PpIX production at 500 to 1000 uM incubated for 4 hrs by fluorescence based assay; format: cell-based; conditions: a-375, 4 h
HeLa [39] = test: Potency index, ratio of 5-ALA IC50 to compound IC50 for photosensitization activity against human HeLa cells by MTT assay; format: functional
[40] = Prodrug activation in PBS buffer assessed as GSH-mediated cleaved product C-SA formation at 0.5 mM incubated for 1 hr measured at 37 degC and pH 7.4 in presence of 10 mM GSH by ESI-MS spectrometry; conditions: pH 7.4, 1 h, 500 µM
[41] = Prodrug activation in human HeLa cells assessed as increase in GSH-mediated PpIX production at 100 uM incubated for 4 hrs by fluorescence based assay relative to 5-ALA-OMe; format: cell-based
[42] = Prodrug activation in human HCT116 cells assessed as increase in GSH-mediated PpIX production at 100 uM incubated for 4 hrs by fluorescence based assay relative to 5-ALA-OMe; format: cell-based; conditions: hct-116, 4 h
A-375 [43] = test: Cytotoxicity against human A375 cells assessed as reduction in cell viability at 500 to 1000 uM incubated for 4 hrs measured under dark conditions by MTT assay; format: cell-based; conditions: a-375, 4 h
[44] = Prodrug activation in human A549 cells assessed as increase in GSH-mediated PpIX production at 100 uM incubated for 4 hrs by fluorescence based assay relative to 5-ALA; format: cell-based; conditions: a549, 4 h

COC(=O)CCC(=O)CNC(=O)OCCCCCCOC(=O)NCC(=O)CCC(=O)OC
inhibition (A-375 [1]): inactive
Drug metabolism [2]: Metabolite_Notdetected
inhibition (A549 [3]): inactive
inhibition (HCT-116 [4]): inactive
Activity (HeLa [5]): Non-Toxic
inhibition (HeLa [6]): inactive
Drug metabolism [7]: Metabolite_Notdetected

COC(=O)CCC(=O)CN [METHYL AMINOLEVULINATE]
IC50 (HeLa [8]): 763 µM
Drug metabolism [9]: Metabolite_Detected
Drug metabolism [10]: Metabolite_Detected
logP at 0.5 h [11]: -0.94
Stability [12]: Stable
Drug metabolism [13]: Metabolite_Detected
Activity (HeLa [14]): inactive
Drug metabolism [15]: Metabolite_Detected
Stability [16]: Unstable
viability at 100 µM (HCT-116 [17]): > 80%
Stability [18]: Unstable
viability at 100 µM (A-375 [19]): > 80%
Activity (HeLa [5]): Non-Toxic
Drug metabolism [7]: Metabolite_Notdetected
Drug metabolism [20]: Metabolite_Detected
viability at 100 µM (A549 [21]): > 80%

NCC(=O)CCC(=O)O [AMINOLEVULINIC ACID]
IC50 (HeLa [8]): 230 µM
Drug metabolism [9]: Metabolite_Detected
logP at 0.5 h [11]: -1.52
Stability [12]: Stable
Drug metabolism [13]: Metabolite_Detected
Drug metabolism [22]: Metabolite_Detected
Activity (HeLa [14]): inactive
Drug metabolism [15]: Metabolite_Detected
Stability [16]: Unstable
viability at 100 µM (HCT-116 [17]): > 80%
Stability [18]: Unstable
viability at 100 µM (A-375 [19]): 60%
Activity (HeLa [5]): Non-Toxic
Drug metabolism [7]: Metabolite_Notdetected
Drug metabolism [20]: Metabolite_Detected
viability at 100 µM (A549 [21]): > 80%

COC(=O)CCC(=O)CNC(=O)OCCSSCCOC(=O)NCC(=O)CCC(=O)OC
Ratio IC50 (HeLa [23]): 12
fold change (FC) [24]: 20
IC50 (HeLa [8]): 62 µM
Drug metabolism [25]: Metabolite_Detected
Drug metabolism [9]: Metabolite_Detected
fold change (FC) [26]: 84
fold change (FC) [27]: 43
Stability [28]: Stable
Activity (HeLa [29]): Toxic
Drug metabolism [30]: Metabolite_Detected
Activity (HeLa [31]): Toxic
logP at 0.5 h [11]: 0.84
fold change (FC) [32]: 3 to 40
fold change (FC) [33]: 3 to 40
Stability [12]: Stable
Drug metabolism [13]: Metabolite_Detected
Activity (HCT-116 [34]): Toxic
Drug metabolism [35]: Metabolite_Detected
Drug metabolism [36]: Metabolite_Detected
Activity (A549 [37]): Toxic
viability at 100 µM (HeLa [14]; light or radiation study, read-out: Activity): 30%
Drug metabolism [15]: Metabolite_Detected
Stability [16]: Stable
Drug metabolism [38]: Metabolite_Detected
Ratio IC50 (HeLa [39]): 4
viability at 100 µM (HCT-116 [17]): 13%
Stability [18]: Stable
viability at 100 µM (A-375 [19]): 14%
Drug metabolism [40]: Metabolite_Detected
fold change (FC) [41]: 70
fold change (FC) [42]: 28
Activity (A-375 [43]): Toxic
Drug metabolism [7]: Metabolite_Detected
Drug metabolism [20]: Metabolite_Detected
fold change (FC) [44]: 3 to 40
viability at 100 µM (A549 [21]): 16%
